Experimental findings from ChEMBL document CHEMBL1201862, “PubChem BioAssay data set” (2004) are described below.

Some test systems named below: HCC 2998; CCRF-CEM; COLO 205; SR; Malme-3M; HCT-15; SNB-75; MOLT-4; T47D; HL-60; HT-29; MCF7; TK-10; PC-3; Hs-578T; UO-31; NCI-H23; A549; IGROV-1; HCT-116.
Common to all, as to assay: growth of human tumour cells (NCI), 48 h

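Protocol summary: plate cells (96-well), add compound at 5 concentrations, incubate 48 h, interpolate endpoints linearly. At the GI50, growth is halved.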 Active and inactive are the calls of the source. Rule as the data show it: active = GI50 up to about 1.1 µM and inactive = higher. Bounds are passed on as bounds.

On to `O=C(O)C12C3C4(C(=O)O)C1C1(C(=O)O)C2C3(C(=O)O)C41` (configuration not stated), for which the GI50 is > 100 µM (inactive) with HCC 2998; > 100 µM (inactive) with CCRF-CEM; > 100 µM (inactive) in the assay with COLO 205; > 100 µM (inactive) with SR; > 100 µM (inactive) with Malme-3M; > 100 µM with HCT-15. Besides, the GI50 in the assay with SNB-75, in the assay on MOLT-4, with T47D, in the assay with HL-60, in the assay on HT-29 and with MCF7 was > 100 µM (inactive) each time. For the same compound, the GI50 in the assay with TK-10, in the assay with PC-3, with Hs-578T, in the assay with UO-31, in the assay with NCI-H23 and with A549 was > 100 µM (inactive) each time. For the same compound, the GI50 in the assay on IGROV-1 and in the assay with HCT-116 was > 100 µM (inactive) in each case.
`CCOC(=O)c1ccc(Nc2nc3ccc(C(F)(F)F)cc3nc2-c2ccccc2)cc1`: the GI50 was 84.1 µM (inactive) with HCC 2998; 63.4 µM (inactive) with CCRF-CEM; > 100 µM (inactive) in the assay on SR; > 100 µM (inactive) in the assay on Malme-3M; 15.4 µM in the assay on HCT-15; 41.3 µM (inactive) in the assay on SNB-75. Besides, the GI50 in the assay with MOLT-4 was 38.1 µM (inactive); in the assay on T47D, 20.5 µM (inactive); in the assay with HL-60, 61.1 µM (inactive); with HT-29, 67.9 µM (inactive); in the assay on MCF7, > 100 µM (inactive); in the assay on TK-10, > 100 µM (inactive). Also, the GI50 in the assay on PC-3 is 38 µM (inactive); with Hs-578T, 60.5 µM (inactive); with UO-31 it was > 100 µM (inactive); in the assay with NCI-H23, > 100 µM (inactive); in the assay on A549, > 100 µM (inactive); in the assay with IGROV-1 it was 71.9 µM (inactive). For the same compound, in the assay on HCT-116, the GI50 was 84.9 µM (inactive).
Consider `O=C(O)CC[P+](c1ccccc1)(c1ccccc1)c1ccccc1`, for which the GI50 in the assay with HCC 2998 was > 100 µM (inactive); with CCRF-CEM it was 50.7 µM (inactive); in the assay on COLO 205 it was 14.3 µM (inactive); in the assay with SR it was 50.4 µM (inactive); in the assay with Malme-3M, 16.3 µM (inactive); in the assay on HCT-15, > 100 µM. Besides, the GI50 in the assay on SNB-75 is 28.4 µM (inactive); in the assay on MOLT-4, 49.1 µM (inactive); in the assay on T47D, 7.94 µM (inactive); with HL-60, 11.5 µM (inactive); in the assay with HT-29, 15.4 µM (inactive); in the assay on MCF7, 39 µM (inactive). Besides, the GI50 in the assay on TK-10 was > 100 µM (inactive); in the assay on PC-3, 37.4 µM (inactive); in the assay with Hs-578T, 48.3 µM (inactive); with UO-31, > 100 µM (inactive); with NCI-H23 it was 23.3 µM (inactive); in the assay with A549 it was 45.4 µM (inactive). Further, the GI50 was 15 µM (inactive) in the assay with IGROV-1 and 21.3 µM (inactive) with HCT-116.
In the case of `CC(=O)c1sc2[n+](c1C)C(=O)/C(=C\c1ccccc1Cl)S2`, the GI50 is 20 µM (inactive) in the assay with HCC 2998; 27.6 µM (inactive) in the assay on CCRF-CEM; 14.9 µM (inactive) with COLO 205; 18.3 µM (inactive) in the assay with SR; 17.5 µM (inactive) in the assay with Malme-3M; 14.1 µM in the assay with HCT-15. Besides, the GI50 is 26.8 µM (inactive) with SNB-75; 22.4 µM (inactive) with MOLT-4; 15.7 µM (inactive) with T47D; 20.7 µM (inactive) in the assay on HL-60; 20.6 µM (inactive) in the assay on HT-29; 16.1 µM (inactive) with MCF7. In addition, the GI50 was 26.9 µM (inactive) in the assay with TK-10; 22.5 µM (inactive) in the assay on PC-3; 47.8 µM (inactive) in the assay on Hs-578T; 19.3 µM (inactive) in the assay with UO-31; 19.3 µM (inactive) with NCI-H23; 19.6 µM (inactive) in the assay on A549. The results for the GI50 in the assay with IGROV-1 and in the assay on HCT-116 were 18.3 µM (inactive) and 20.7 µM (inactive), respectively.
`COc1cc2cc3c4c(cc(OC)c(OC)c4c2cc1OC)CCN3C`: the GI50 with HCC 2998 was 7.41 µM (inactive); in the assay on CCRF-CEM it was 1.36 µM (inactive); in the assay on COLO 205, 7.64 µM (inactive); in the assay on SR, 1.25 µM (inactive); with Malme-3M, 8.53 µM (inactive); in the assay with HCT-15 it was 6.84 µM. The GI50 with SNB-75 is 8.13 µM (inactive); in the assay with MOLT-4, 2.41 µM (inactive); in the assay with T47D it was 1.67 µM (inactive); in the assay with HL-60, 5.3 µM (inactive); in the assay on HT-29, 6.89 µM (inactive); in the assay on MCF7, 2.63 µM (inactive). For the same compound, the GI50 in the assay on TK-10 was 4.42 µM (inactive); in the assay with PC-3 it was 3.52 µM (inactive); in the assay with Hs-578T, 2.63 µM (inactive); in the assay on UO-31, 2.11 µM (inactive); with NCI-H23, 12.8 µM (inactive); in the assay on A549, 9.53 µM (inactive). Besides, the values for the GI50 with IGROV-1 and in the assay with HCT-116 were 4.21 µM (inactive) and 5.96 µM (inactive), respectively.
For `COC(=O)/C=C(/C(=O)OC)c1cc2ccc3c([nH]c4ccccc43)c(C)c-2c1`, the GI50 with HCC 2998 is 3.92 µM (inactive); in the assay on CCRF-CEM, 2.9 µM (inactive); in the assay with COLO 205, 1.75 µM (inactive); in the assay with SR, 2.74 µM (inactive); with Malme-3M it was 5.21 µM (inactive); with HCT-15, 3.94 µM. Moreover, the GI50 in the assay with SNB-75 is 5.26 µM (inactive); with MOLT-4, 3.13 µM (inactive); with T47D, 3.6 µM (inactive); in the assay with HL-60, 3.15 µM (inactive); with HT-29, 2.78 µM (inactive); in the assay on MCF7, 2.79 µM (inactive). Further, the GI50 in the assay on TK-10 is 15.2 µM (inactive); with PC-3 it was 2.68 µM (inactive); in the assay on Hs-578T, 3.41 µM (inactive); in the assay with UO-31 it was 3.79 µM (inactive); with NCI-H23, 3.96 µM (inactive); in the assay with A549 it was 4.73 µM (inactive). For the same compound, the GI50 with IGROV-1 is 2.74 µM (inactive); with HCT-116, 4.49 µM (inactive).
Consider `Cc1[nH]c2ccccc2c1-c1cc(-c2cc(-c3c(C)[nH]c4ccccc34)on2)no1`, for which the GI50 was 61 µM (inactive) with HCC 2998; 34.2 µM (inactive) in the assay with CCRF-CEM; 84.1 µM (inactive) in the assay on COLO 205; 38.8 µM (inactive) in the assay with SR; 63.7 µM (inactive) in the assay on Malme-3M; 57.1 µM in the assay on HCT-15. The GI50 with SNB-75 was 18.2 µM (inactive); in the assay with MOLT-4, > 100 µM (inactive); in the assay on T47D, 85.5 µM (inactive); in the assay with HL-60, 34.5 µM (inactive); with HT-29, 42.6 µM (inactive); in the assay on MCF7, 55 µM (inactive). Also, the GI50 was > 100 µM (inactive) in the assay on TK-10; 63 µM (inactive) in the assay with PC-3; 37.2 µM (inactive) in the assay on Hs-578T; 46.6 µM (inactive) in the assay with UO-31; > 100 µM (inactive) in the assay with NCI-H23; > 100 µM (inactive) in the assay on A549. For the same compound, the GI50 in the assay with IGROV-1 is 56.8 µM (inactive); in the assay on HCT-116, 44.3 µM (inactive).
On to `COc1cc2oc(=O)cc(C)c2cc1[N+](=O)[O-]`, for which the GI50 in the assay with HCC 2998 is 14.6 µM (inactive); in the assay with CCRF-CEM, 17.8 µM (inactive); in the assay with COLO 205, 23.9 µM (inactive); with SR, 13 µM (inactive); in the assay on Malme-3M, 20.1 µM (inactive); with HCT-15, 17.7 µM. Besides, the GI50 with SNB-75 is 57.5 µM (inactive); in the assay with MOLT-4, 13.7 µM (inactive); in the assay on T47D, 20.7 µM (inactive); in the assay with HL-60 it was 8.87 µM (inactive); in the assay on HT-29 it was 23.1 µM (inactive); in the assay on MCF7 it was 25.5 µM (inactive). Also, the GI50 in the assay on TK-10 is 35.7 µM (inactive); in the assay with PC-3, 27.9 µM (inactive); in the assay with Hs-578T it was 28.2 µM (inactive); in the assay with UO-31, 34.4 µM (inactive); in the assay with NCI-H23, 21.3 µM (inactive); in the assay with A549 it was > 90.4 µM (inactive). The figures for the GI50 with IGROV-1 and with HCT-116 were 38.9 µM (inactive) and 15.3 µM (inactive), respectively.
As for `CCOC(=O)NC`, the GI50 in the assay on HCC 2998 was > 100 µM (inactive); in the assay on CCRF-CEM it was > 100 µM (inactive); in the assay with COLO 205, > 100 µM (inactive); in the assay with SR it was > 100 µM (inactive); with Malme-3M, > 100 µM (inactive); in the assay with HCT-15 it was > 100 µM. Moreover, the GI50 with SNB-75, in the assay with T47D, in the assay on HL-60, with HT-29, in the assay with MCF7 and with TK-10 was > 100 µM (inactive) throughout. For the same compound, the GI50 in the assay on PC-3, in the assay with Hs-578T, with UO-31, in the assay with NCI-H23, with A549 and in the assay with IGROV-1 was > 100 µM (inactive) throughout. Also, in the assay on HCT-116, the GI50 is > 100 µM (inactive).
As to `[O-][S+](c1ccccc1)C1CC2CC3(CCC21O)OCCO3` (configuration not stated), the GI50 in the assay on HCC 2998 was > 100 µM (inactive); in the assay on CCRF-CEM, > 100 µM (inactive); in the assay with COLO 205, > 100 µM (inactive); with SR, > 100 µM (inactive); in the assay with Malme-3M, > 100 µM (inactive); in the assay with HCT-15, > 100 µM. Moreover, the GI50 in the assay with SNB-75, in the assay with MOLT-4, in the assay on T47D, in the assay on HL-60, in the assay on HT-29 and in the assay with MCF7 was > 100 µM (inactive) in each case. The GI50 with TK-10, with PC-3, in the assay with Hs-578T, in the assay on UO-31, in the assay with NCI-H23 and in the assay with A549 was > 100 µM (inactive) throughout. For the same compound, in the assay on IGROV-1, the GI50 is > 100 µM (inactive).
